Data: US20240025919A1, “AZA-TETRACYCLIC OXAZEPINE COMPOUNDS AND USES THEREOF” (Genentech, Inc., priority 2022, published 2024)

Key:
KRAS G12D = KRAS G12D (Homo sapiens (Human), UniProt P01116, G12D); assay: KRAS G12D LoEnz Biochemical Assay, BODIPY-GDP Exchange TR-FRET (SOS1-mediated nucleotide exchange); details: read-out: KRas (G12D) GDP HTRF IC50
KRAS WT = KRAS WT (Homo sapiens (Human), UniProt P01116); assay: KRAS WT Biochemical Assay, BODIPY-GDP Exchange TR-FRET (Example 502; 0.06 nM KRAS WT, 15 nM GDP, 300 nM SOS1, 120-minute incubation); details: read-out: KRas HTRF IC50
Sequence of KRAS WT (P01116-2 other isoform, or with tags, fused parts or gaps): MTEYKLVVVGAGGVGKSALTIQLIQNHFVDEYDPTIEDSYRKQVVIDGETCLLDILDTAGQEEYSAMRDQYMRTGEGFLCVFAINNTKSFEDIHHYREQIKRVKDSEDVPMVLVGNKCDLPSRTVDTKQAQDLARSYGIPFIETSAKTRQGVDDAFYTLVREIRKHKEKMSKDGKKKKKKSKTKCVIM
Method: Example 502: KRAS WT Biochemical Assay, BODIPY-GDP Exchange TR-FRET. Biochemical compound potencies are assessed by evaluating inhibition of SOS1-mediated nucleotide exchange in KRAS WT. In this assay, the SOS1-promoted exchange of fluorescently-labeled GDP (BOPIDY-GDP) is monitored by time-resolved fluorescence resonance energy transfer (TR-FRET). Compounds solubilized in DMSO are dispensed as concentration series into 384-well white assay plates. A preformed complex of 0.06 nM biotin-tagged recombinant human KRAS WT, 15 nM GDP and 0.06 nM terbium-labeled streptavidin (CisBIO) prepared in 10 uL/well assay buffer (20 mM HEPES, pH 7.5, 50 mM NaCl, 10 mM MgCl2, 0.01% Tween-20 and 1 mM dithiothreitol) is added and allowed to incubate for 10-minutes at room temperature. The reaction is initiated with the addition of 5 uL 300 nM recombinant human SOS1 and 300 nM BODIPY-GDP in assay buffer. After a 120-minute incubation, the fluorescence is measured with excitation at 337 nm and emission at 490 and 520 nm. The TR-FRET ratio is determined as the fluorescence at 520 nm divided by the fluorescence at 490 nm multiplied by 10,000. The results are normalized to percent inhibition based on control samples: DMSO (0% inhibition) and control compound at a concentration that inhibits completely (100% inhibition). The normalized TR-FRET results are plotted against compound concentration, and the data are fit to a 4-parameter Hill equation to determine the IC50 values.

Sequence of KRAS G12D (P01116-2 other isoform, or with tags, fused parts or gaps G12D): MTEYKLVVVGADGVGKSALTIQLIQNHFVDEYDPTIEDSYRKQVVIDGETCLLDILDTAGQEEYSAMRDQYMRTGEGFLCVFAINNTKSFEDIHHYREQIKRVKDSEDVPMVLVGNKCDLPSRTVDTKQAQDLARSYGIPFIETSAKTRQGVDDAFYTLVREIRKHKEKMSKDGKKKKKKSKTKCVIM

Structure (SMILES) | IC50 (KRAS G12D) [nM] | IC50 (KRAS WT) [nM]
Cc1c(F)c(N)cc(-c2nc3c4c(nc(OC[C@@H]5CCC6C=C(F)CCN65)nc4c2F)N2C[C@H]4CC[C@H](N4)[C@H]2[C@H](C)O3)c1C(F)(F)F (stereo partly drawn) [Compound 120, 2-fluoro-5-((5S,5aS,6S,9R)-1-fluoro-12-(((3S)-7-fluoro-1,2,3,5,6,8a-hexahydroindolizin-3-yl)methoxy)-5-methyl-5a,6,7,8,9,10-hexahydro-5H-4-oxa-3,10a,11,13,14-pentaaza-6,9-methanonaphtho[1,8-ab]heptalen-2-yl)-3-methyl-4-(trifluoromethyl)aniline] | 0.24 | 44.5
Cc1c(F)c(N)cc(-c2nc3c4c(nc(OC[C@@H]5CC[C@@H]6CC(F)(F)CCN65)nc4c2F)N2C[C@H]4CC[C@H](N4)[C@H]2[C@H](C)O3)c1C(F)(F)F (single isomer, unassigned) [119 (isomer 1)] | 4.38 | 787
Cc1c(F)c(N)cc(-c2nc3c4c(nc(OCC5(CN6C[C@@H]7C[C@H]6CO7)CC5)nc4c2F)N2C[C@H]4CC[C@H](N4)[C@H]2[C@H](C)O3)c1C(F)(F)F [Compound 169, 5-((5S,5aS,6S,9R)-12-((1-(((1S,4S)-2-Oxa-5-azabicyclo[2.2.1]heptan-5-yl)methyl)cyclopropyl)methoxy)-1-fluoro-5-methyl-5a,6,7,8,9,10-hexahydro-5H-4-oxa-3,10a,11,13,14-pentaaza-6,9-methanonaphtho[1,8-ab]heptalene-2-yl)-2-fluoro-3-methyl-4-(trifluoromethyl)aniline] | 0.1 | 2.31
Cc1cc(N)cc(-c2nc3c4c(nc(OC[C@]56CCN5CC(F)(F)C6)nc4c2F)N2C[C@H]4CC[C@H](N4)[C@H]2[C@H](C)O3)c1C(F)(F)F [Compound 60, 3-((5S,5aS,6S,9R)-12-(((R)-3,3-Difluoro-1-azabicyclo[3.2.0]heptan-5-yl)methoxy)-1-fluoro-5-methyl-5a,6,7,8,9,10-hexahydro-5H-4-oxa-3,10a,11,13,14-pentaaza-6,9-methanonaphtho[1,8-ab]heptalen-2-yl)-5-methyl-4-(trifluoromethyl)aniline] | 0.18 | 4.55
Cc1c(F)c(N)cc(-c2nc3c4c(nc(OCC5(CN6CC(F)C6)CC5)nc4c2F)N2C[C@H]4CC[C@H](N4)[C@H]2[C@H](C)O3)c1C(F)(F)F [Compound 173, 2-Fluoro-5-((5S,5aS,6S,9R)-1-fluoro-12-((1-((3-fluoroazetidin-1-yl)methyl)cyclopropyl)methoxy)-5-methyl-5a,6,7,8,9,10-hexahydro-5H-4-oxa-3,10a,11,13,14-pentaaza-6,9-methanonaphtho[1,8-ab]heptalene-2-yl)-3-methyl-4-(trifluoromethyl)aniline] | 0.08 | 5.95
Cc1c(F)c(N)cc(-c2nc3c4c(nc(OC[C@@]56CCC(C)N5C[C@H](F)C6)nc4c2F)N2C[C@H]4CC[C@H](N4)[C@H]2[C@H](C)O3)c1C(F)(F)F (stereo partly drawn) [Compound 122, 2-fluoro-5-((5S,5aS,6S,9R)-1-fluoro-12-(((2R,7aS)-2-fluoro-5-methyltetrahydro-1H-pyrrolizin-7a(5H)-yl)methoxy)-5-methyl-5a,6,7,8,9,10-hexahydro-5H-4-oxa-3,10a,11,13,14-pentaaza-6,9-methanonaphtho[1,8-ab]heptalen-2-yl)-3-methyl-4-(trifluoromethyl)aniline] | 0.11 | 3.72
Cc1c(F)c(N)cc(-c2nc3c4c(nc(OCC5(CN6C[C@H]7C[C@@H]6CO7)CC5)nc4c2F)N2C[C@H]4CC[C@H](N4)[C@H]2[C@H](C)O3)c1C(F)(F)F [Compound 170, 5-((5S,5aS,6S,9R)-12-((1-(((1R,4R)-2-Oxa-5-azabicyclo[2.2.1]heptan-5-yl)methyl)cyclopropyl)methoxy)-1-fluoro-5-methyl-5a,6,7,8,9,10-hexahydro-5H-4-oxa-3,10a,11,13,14-pentaaza-6,9-methanonaphtho[1,8-ab]heptalene-2-yl)-2-fluoro-3-methyl-4-(trifluoromethyl)aniline] | 0.09 | 2.16
